Laboratory results taken from patent publication US20090018194A1, “Use of antimicrobial agents derived from alliaceous plants for the prevention and control of crop diseases, post-harvest rot and as environmental disinifectant products” (DMC Research Center, S.L., priority 2007, published 2009).

How the values were obtained:
[1] = tested on: Saccharomyces cerevisiae CECT 1324; assay: agar diffusion test with impregnated cellulose discs; format: cell-based; settings: incl. 6 mm disc
[2] = tested on: Listeria monocytogenes CECT 4032; assay: as above; format: cell-based; settings: incl. 6 mm disc
[3] = tested on: Penicillium digitatum Wild strain Supplied by UdL-IRTA; assay: agar diffusion test, wild phytopathogens isolated from citrus rot; format: cell-based; settings: incl. 6 mm disc
[4] = tested on: Penicillium expansum; assay: post-harvest rotting of inoculated apples, drencher treatment; format: in vivo; settings: 15 days of refrigeration at 5-6° C.
Experimental: (§1) The effectiveness of the active principle PTS (in various individual doses) was studied in the control of post-harvest rotting of pears and apples caused by the fungi Botrytis cinerea and Penicillium expansum, the principal agents of diseases in these fruits. These phytopathogens can appear in fruit being stored in a cold room and, once in the processing plant and in a later phase, form colonies and are transferred from one fruit to another by contact. The study was performed by means of a controlled inoculation test to ensure a high percentage of affected fruits, and to guarantee that this level of infection is with certainty caused by these pathogens, thereby making it possible to detect and evaluate significant differences between the different treatments. […] To perform the controlled inoculation, wild strains of Botrytris cinerea and Penicillium expansum were used which were isolated in fruit and vegetable processing plants. […] After the time indicated above had passed, the various post-harvest treatments were carried out by means of […] 25° C. for 60 seconds.

[5] = tested on: Botrytis cinerea; assay: as above; format: in vivo; settings: 15 days of refrigeration at 5-6° C.
Experimental: as §1

[6] = tested on: Candida krusei ATCC 34135; assay: agar diffusion test with impregnated cellulose discs; format: cell-based; settings: incl. 6 mm disc
[7] = tested on: Phytophthora citrophthora; assay: post-harvest rotting of inoculated oranges (Navelina), immersion treatment; format: in vivo
Experimental: (§2) This example considers the effectiveness of the active natural principles PTS and PTSO in two different doses for the control of post-harvest rotting of oranges ([…] variety), caused by controlled artificial inoculation with the fungi Penicillium digitatum, Penicillium expansum, Phytophthora citrophthora and Geotrichum candidum, the principal pathogens of this fruit. The inoculation of the oranges was carried out with suspensions of spores of the different wild fungal strains selected, according to the methodology described below. The first step was the isolation and identification of the fungal strains used in the study. The strains of filamentous fungi used in these tests (Penicillium digitatum, Penicillium italicum and Phytophthora citrophthora) were isolated from oranges affected by rot. In these isolation processes, it was not possible to detect any strain belonging to Geotrichum candidum, as a result of which it was necessary to obtain the latter substance from the Spanish Collection of Standard Cultures, where it is identified by reference CECT 1102. […] To promote the implantation of the inoculum of Geotrichum candidum, 200 ppm of cyclohexamide was added to the inoculum prior to its inoculation. […] The assessment of the effectiveness of PTS and PTSO comprised counting of the number of fruits affected by rot in the inoculated zone, to determine the percentage of fruit affected for each treatment and fungus inoculated, and expressing this effectiveness as a percentage of reduction of the affected fruit.

[8] = tested on: Geotrichum candidum; assay: as above; format: in vivo
Experimental: as §2

[9] = tested on: Phytophthora citrophthora CECT 2353; assay: agar diffusion test, wild phytopathogens isolated from citrus rot; format: cell-based; settings: incl. 6 mm disc
[10] = tested on: Bacillus megaterium ATCC 33085; assay: agar diffusion test with impregnated cellulose discs; format: cell-based; settings: incl. 6 mm disc
[11] = tested on: Penicillium italicum CECT 2294; assay: as above; format: cell-based; settings: incl. 6 mm disc
[12] = tested on: Penicillium expansum; assay: post-harvest rotting of inoculated pears, drencher treatment; format: in vivo; settings: 15 days of refrigeration at 5-6° C.
Experimental: as §1

[13] = tested on: Botrytis cinerea; assay: as above; format: in vivo; settings: 15 days of refrigeration at 5-6° C.
Experimental: as §1

[14] = tested on: Penicillium sp. (CPC-PT-4); assay: agar diffusion test, wild fungi isolated from crown rot in bananas; format: cell-based; settings: incl. 6 mm disc
[15] = tested on: Aspergillus niger CECT 2700; assay: agar diffusion test with impregnated cellulose discs; format: cell-based; settings: incl. 6 mm disc
[16] = 1600 ppm, 4 days of treatment at 20° C.
[17] = 1600 ppm, 7 days of treatment at 20° C.
[18] = 2500 ppm, 4 days of treatment at 20° C.
[19] = 2500 ppm, 7 days of treatment at 20° C.

`CCCS[S+]([O-])CCC` (stereo not drawn) [PTS, Propyl Propyl Thiosulfinate] was tested, and the “diameter of the microbial inhibition halo” value ([1]; 25 ppm) was 28 mm, the “diameter of the microbial inhibition halo” value ([1]; 50 ppm) was 32 mm and the “diameter of the microbial inhibition halo” value ([1]; 100 ppm) was 44 mm. For the same compound, the “diameter of the microbial inhibition halo” value ([2]; 25 ppm) was 18 mm, the “diameter of the microbial inhibition halo” value ([2]; 50 ppm) was 24 mm and the “diameter of the microbial inhibition halo” value ([2]; 100 ppm) was 30 mm. For the same compound, the “diameter of the microbial inhibition halo” value ([3]; 30 ppm) was 12 mm, the “diameter of the microbial inhibition halo” value ([3]; 60 ppm) was 15 mm and the “diameter of the microbial inhibition halo” value ([3]; 125 ppm) was 20 mm. For the same compound, the “diameter of the microbial inhibition halo” value ([3]; 250 ppm) was 33 mm, the “diameter of the microbial inhibition halo” value ([3]; 500 ppm) was 40 mm and the “diameter of the microbial inhibition halo” value ([3]; 1000 ppm) was 41 mm. For the same compound, the “% of fruit affected” value ([4]; Golden Delicious, 500 ppm) was 1.4%, the “% of fruit affected” value ([4]; Golden Delicious, 666 ppm) was 0.5% and the “% of fruit affected” value ([4]; Golden Delicious, 833 ppm) was 2.5%. For the same compound, the “% of fruit affected” value ([4]; Golden Delicious, 1666 ppm) was 0.7%, the “% of fruit affected” value ([4]; Red Chief, 500 ppm) was 2.8% and the “% of fruit affected” value ([4]; Red Chief, 666 ppm) was 0%. The “% of fruit affected” value ([4]; Red Chief, 833 ppm) was 3.2%, the “% of fruit affected” value ([4]; Red Chief, 1666 ppm) was 2.4% and the “% of fruit affected” value ([5]; Golden Delicious, 500 ppm) was 0.5%. The “% of fruit affected” value ([5]; Golden Delicious, 666 ppm) was 0%, the “% of fruit affected” value ([5]; Golden Delicious, 833 ppm) was 1% and the “% of fruit affected” value ([5]; Golden Delicious, 1666 ppm) was 0%. The “% of fruit affected” value ([5]; Red Chief, 500 ppm) was 1%, the “% of fruit affected” value ([5]; Red Chief, 666 ppm) was 0% and the “% of fruit affected” value ([5]; Red Chief, 833 ppm) was 1.5%. The “% of fruit affected” value ([5]; Red Chief, 1666 ppm) was 0%, the “diameter of the microbial inhibition halo” value ([6]; 25 ppm) was 14 mm and the “diameter of the microbial inhibition halo” value ([6]; 50 ppm) was 18 mm. The “diameter of the microbial inhibition halo” value ([6]; 100 ppm) was 29 mm, the “% Reduction” value [7, 16] was 60% and the “% of fruit affected” value [7, 16] was 18%. The “% Reduction” value [7, 17] was 7%, the “% of fruit affected” value [7, 17] was 93% and the “% Reduction” value [7, 18] was 70%. For the same compound, the “% of fruit affected” value [7, 18] was 8%, the “% Reduction” value [7, 19] was 20% and the “% of fruit affected” value [7, 19] was 80%. The “% Reduction” value ([8]; 1600 ppm, 7 days at 20° C.) was 95%, the “% of fruit affected” value ([8]; 1600 ppm, 7 days at 20° C.) was 5% and the “% Reduction” value ([8]; 1600 ppm, 14 days at 20° C.) was 37%. For the same compound, the “% of fruit affected” value ([8]; 1600 ppm, 14 days at 20° C.) was 63%, the “% Reduction” value ([8]; 2500 ppm, 7 days at 20° C.) was 100% and the “% of fruit affected” value ([8]; 2500 ppm, 7 days at 20° C.) was 0%. For the same compound, the “% Reduction” value ([8]; 2500 ppm, 14 days at 20° C.) was 37%, the “% of fruit affected” value ([8]; 2500 ppm, 14 days at 20° C.) was 63% and the “diameter of the microbial inhibition halo” value ([9]; 30 ppm) was 10 mm. For the same compound, the “diameter of the microbial inhibition halo” value ([9]; 60 ppm) was 21 mm, the “diameter of the microbial inhibition halo” value ([9]; 125 ppm) was 23 mm and the “diameter of the microbial inhibition halo” value ([9]; 250 ppm) was 42 mm. The “diameter of the microbial inhibition halo” value ([9]; 500 ppm) was 53 mm, the “diameter of the microbial inhibition halo” value ([9]; 1000 ppm) was 55 mm and the “diameter of the microbial inhibition halo” value ([10]; 25 ppm) was 23 mm. The “diameter of the microbial inhibition halo” value ([10]; 50 ppm) was 27 mm, the “diameter of the microbial inhibition halo” value ([10]; 100 ppm) was 34 mm and the “diameter of the microbial inhibition halo” value ([11]; 25 ppm) was 22 mm. The “diameter of the microbial inhibition halo” value ([11]; 50 ppm) was 26 mm, the “diameter of the microbial inhibition halo” value ([11]; 100 ppm) was 34 mm and the “% of fruit affected” value ([12]; Decana, 500 ppm) was 0%. The “% of fruit affected” value ([12]; Decana, 666 ppm) was 2%, the “% of fruit affected” value ([12]; Decana, 833 ppm) was 0% and the “% of fruit affected” value ([12]; Decana, 1666 ppm) was 3%. For the same compound, the “% of fruit affected” value ([12]; Flor de invierno, 500 ppm) was 3.6%, the “% of fruit affected” value ([12]; Flor de invierno, 666 ppm) was 2.2% and the “% of fruit affected” value ([12]; Flor de invierno, 833 ppm) was 2.4%. For the same compound, the “% of fruit affected” value ([12]; Flor de invierno, 1666 ppm) was 5.3%, the “% of fruit affected” value ([13]; Decana, 500 ppm) was 0% and the “% of fruit affected” value ([13]; Decana, 666 ppm) was 0%. The “% of fruit affected” value ([13]; Decana, 833 ppm) was 1%, the “% of fruit affected” value ([13]; Decana, 1666 ppm) was 0.5% and the “% of fruit affected” value ([13]; Flor de invierno, 500 ppm) was 3.5%. For the same compound, the “% of fruit affected” value ([13]; Flor de invierno, 666 ppm) was 0.4%, the “% of fruit affected” value ([13]; Flor de invierno, 833 ppm) was 3.7% and the “% of fruit affected” value ([13]; Flor de invierno, 1666 ppm) was 3%. For the same compound, the “diameter of the microbial inhibition halo” value ([14]; 30 ppm) was 0 mm, the “diameter of the microbial inhibition halo” value ([14]; 60 ppm) was 11 mm and the “diameter of the microbial inhibition halo” value ([14]; 125 ppm) was 13 mm. For the same compound, the “diameter of the microbial inhibition halo” value ([14]; 250 ppm) was 20 mm, the “diameter of the microbial inhibition halo” value ([14]; 500 ppm) was 23 mm and the “diameter of the microbial inhibition halo” value ([14]; 1000 ppm) was 25 mm. For the same compound, the “diameter of the microbial inhibition halo” value ([15]; 25 ppm) was 10 mm, the “diameter of the microbial inhibition halo” value ([15]; 50 ppm) was 13 mm and the “diameter of the microbial inhibition halo” value ([15]; 100 ppm) was 19 mm.
